The text below walks through data of the NIST ThermoML archive (doi:10.1021/acs.jced.8b00635).

This series is described as follows: activity coefficient (dimensionless); of the first substance listed, at infinite dilution; xn = mol fraction of the nth substance listed. The note with it: 101.33 kPa, Liquid, Chromatography, x1 = 0.

± gives the expanded uncertainty stated by the source.

For `ClC(Cl)Cl` [trichloromethane] + CCCCC(CC)CN(CC(CC)CCCC)C(=O)C(C)C, the activity coefficient by setting is: (323.15 K) 1.15 ± 0.12; (333.15 K) 0.966 ± 0.098; (343.15 K) 0.746 ± 0.077; (353.15 K) 0.586 ± 0.063; (363.15 K) 0.463 ± 0.052; (373.15 K) 0.372 ± 0.044.

Turning to `CCCCCCCCCCC` [undecane] + CCCCC(CC)CN(CC(CC)CCCC)C(=O)C(C)C, the activity coefficient was found to be 39.2 ± 4.1 (323.15 K); 35.9 ± 3.8 (333.15 K); 31.5 ± 3.3 (343.15 K); 27.5 ± 2.9 (353.15 K); 25.5 ± 2.7 (363.15 K); 22.7 ± 2.4 (373.15 K).
